These are literature values, as cited in article PMC12051155 (Molecular Metabolism, 2025).

For the compound `CCCCCCCCCCCCCCCC(=O)N[C@@H](CCC(=O)NCCCC[C@H](NC(=O)[C@H](C)NC(=O)[C@H](C)NC(=O)[C@H](CCC(N)=O)NC(=O)CNC(=O)[C@H](CCC(=O)O)NC(=O)[C@H](CC(C)C)NC(=O)[C@H](Cc1ccc(O)cc1)NC(=O)[C@H](CO)NC(=O)[C@H](CO)NC(=O)[C@@H](NC(=O)[C@H](CC(=O)O)NC(=O)[C@H](CO)NC(=O)[C@@H](NC(=O)[C@H](Cc1ccccc1)NC(=O)[C@@H](NC(=O)CNC(=O)[C@H](CCC(=O)O)NC(=O)[C@H](C)NC(=O)[C@@H](N)Cc1cnc[nH]1)[C@@H](C)O)[C@@H](C)O)C(C)C)C(=O)N[C@@H](CCC(=O)O)C(=O)N[C@@H](Cc1ccccc1)C(=O)N[C@H](C(=O)N[C@@H](C)C(=O)N[C@@H](Cc1c[nH]c2ccccc12)C(=O)N[C@@H](CC(C)C)C(=O)N[C@H](C(=O)N[C@@H](CCCNC(=N)N)C(=O)NCC(=O)N[C@@H](CCCNC(=N)N)C(=O)NCC(=O)O)C(C)C)[C@@H](C)CC)C(=O)O` [liraglutide], the half-life in humans is given as 13 h.
